Like-named read-outs stand apart in the source and are kept apart here. Positions of bridges follow the written chain, without caps; N, C: chain ends. Non-standard residues stand in square brackets, D forms with d. Residues, ends and D or L forms follow the SMILES beside them. Lys(N3) = [N-]=[N+]=NCCCC[C@H](N)C(=O)O; 2Nal = N[C@@H](Cc1ccc2ccccc2c1)C(=O)O; Lys(Me2) = CN(C)CCCC[C@H](N)C(=O)O; R8 = C=CCCCCCC[C@@](C)(N)C(=O)O; Cba = N[C@@H](CC1CCC1)C(=O)O; S5 = C=CCCC[C@](C)(N)C(=O)O; Dap = NC[C@H](N)C(=O)O; Aib = CC(C)(N)C(=O)O; Ahx = NCCCCCC(=O)O; βAla = NCCC(=O)O
Tests used:
[1] = Lactate dehydrogenase (LDH) release assay; assay type: cell-based
Method: (§1) HCT116 cells were stably transfected with a p53 responsive β-lactamase reporter and expanded in McCoy’s 5 A Medium with 10% fetal bovine serum (FBS), Blasticidin, and Penicillin/Streptomycin and then transferred to 1.5 ml freezing vials and stored under liquid nitrogen in growth media containing 5% DMSO. […] The cells were then seeded into a 384-well plate at a density of 8000 cells per well. […] The final working concentration of DMSO was 0.5%. Lactate dehydrogenase release was detected using the CytoTox-ONE Homogenous Membrane Integrity Assay Kit (Promega), as per the manufacturer’s instructions. Measurements were carried out using the Tecan plate reader. […] Measurements were taken a minimum of three times (biological replicates) and values are reported as geometric means of the replicates.

HCT116 cells = test: Lactate dehydrogenase (LDH) release assay; assay type: cell-based
Method: as §1

[2] = 0% FBS 4Hr, read-out: LDH: Cytotoxicity assay EC50
[3] = 10% FBS 16Hr, read-out: LDH: Cytotoxicity assay EC50

Row | Compound | EC50 ([1]; LDH: Cytotoxicity assay EC50) | LDH: Cytotoxicity assay % Effect (HCT116 cells) | other results
1 | CC(=O)N[C@@H](CCCCN=[N+]=[N-])C(=O)NCCC(=O)N[C@@H](CC(C)C)C(=O)N[C@H](C(=O)N[C@@H](Cc1ccccc1)C(=O)N[C@]1(C)CCCCCCC=CCCC[C@@](C)(C(=O)N[C@@H](C)C(=O)NC(C)(C)C(=O)NC(C)(C)C(=O)NC(C)(C)C(=O)NC(C)(C)C(=O)NC(C)(C)C(N)=O)NC(=O)[C@H](CC2CCC2)NC(=O)[C@H](CCC(N)=O)NC(=O)[C@H](C)NC(=O)[C@H](Cc2c[nH]c3ccccc23)NC(=O)[C@H](Cc2ccc(O)cc2)NC(=O)[C@H](CCC(=O)O)NC1=O)[C@@H](C)O [MP-413] (Ac-[Lys(N3)][βAla]LTF[R8]EYWAQ[Cba][S5]A[Aib][Aib][Aib][Aib][Aib]-NH2; staple 6-13) | – | – | EC50 [1, 2]: > 50.7 µM; EC50 [1, 3]: > 50.7 µM; LDH: Cytotoxicity assay % Effect (HCT116 cells; 0% FBS 4Hr): 8.4%; LDH: Cytotoxicity assay % Effect (HCT116 cells; 10% FBS 16Hr): 10.36%
2 | CC(=O)N[C@@H](CCCCN(C)C)C(=O)N[C@@H](CCCCN(C)C)C(=O)NCCCCCC(=O)N[C@H](C(=O)N[C@@H](CO)C(=O)N[C@@H](Cc1ccccc1)C(=O)N[C@]1(C)CCCCCCC=CCCC[C@@](C)(C(=O)N[C@@H](CCC(=O)O)C(=O)N[C@@H](CC(N)=O)C(=O)N[C@@H](Cc2ccccc2)C(N)=O)NC(=O)[C@H](CC(C)C)NC(=O)[C@H](CC(C)C)NC(=O)[C@H](C)NC(=O)[C@H](Cc2c[nH]c3ccccc23)NC(=O)[C@H](Cc2ccc(O)cc2)NC(=O)[C@H](CCC(=O)O)NC1=O)[C@@H](C)O [MP-2042] (Ac-[Lys(Me2)][Lys(Me2)][Ahx]TSF[R8]EYWALL[S5]ENF-NH2; staple 7-14) | > 50 µM | 5.569% | –
3 | CC(=O)N[C@@H](CCN)C(=O)NCCCCCC(=O)N[C@H](C(=O)N[C@@H](CO)C(=O)N[C@@H](Cc1ccccc1)C(=O)N[C@]1(C)CCCCCCC=CCCC[C@@](C)(C(=O)N[C@@H](CCC(=O)O)C(=O)N[C@@H](CC(N)=O)C(=O)N[C@@H](Cc2ccccc2)C(N)=O)NC(=O)[C@H](CC(C)C)NC(=O)[C@H](CC(C)C)NC(=O)[C@H](C)NC(=O)[C@H](Cc2c[nH]c3ccccc23)NC(=O)[C@H](Cc2ccc(O)cc2)NC(=O)[C@H](CCC(=O)O)NC1=O)[C@@H](C)O [MP-666] | > 50 µM | 15.43% | –
4 | CC(=O)N[C@@H](CN)C(=O)NCCCCCC(=O)N[C@H](C(=O)N[C@@H](CO)C(=O)N[C@@H](Cc1ccccc1)C(=O)N[C@]1(C)CCCCCCC=CCCC[C@@](C)(C(=O)N[C@@H](CCC(=O)O)C(=O)N[C@@H](CC(N)=O)C(=O)N[C@@H](Cc2ccccc2)C(N)=O)NC(=O)[C@H](CC(C)C)NC(=O)[C@H](CC(C)C)NC(=O)[C@H](C)NC(=O)[C@H](Cc2c[nH]c3ccccc23)NC(=O)[C@H](Cc2ccc(O)cc2)NC(=O)[C@H](CCC(=O)O)NC1=O)[C@@H](C)O [MP-665] | > 50 µM | 4.993% | –
5 | CCCC[C@@H]1NC(=O)[C@H](CC(C)C)NC(=O)[C@H](C)NC(=O)[C@H](Cc2c[nH]c3ccccc23)NC(=O)[C@H](Cc2ccc(O)cc2)NC(=O)[C@H](CCC(=O)O)NC(=O)[C@](C)(NC(=O)[C@H](Cc2ccccc2)NC(=O)[C@H](CO)NC(=O)[C@@H](NC(C)=O)[C@@H](C)O)CCCCCCC=CCCC[C@@](C)(C(N)=O)NC1=O [MP-151] | > 50 µM | 9.894% | –
6 | CCCC[C@H](NC(=O)[C@H](CC(C)C)NC(=O)[C@H](C)NC(=O)[C@H](Cc1c[nH]c2ccccc12)NC(=O)[C@H](Cc1ccc(O)cc1)NC(=O)[C@H](CCC(=O)O)NC(=O)C(C)(C)NC(=O)[C@H](Cc1ccccc1)NC(=O)[C@H](CO)NC(=O)[C@@H](NC(C)=O)[C@@H](C)O)C(=O)NC(C)(C)C(N)=O [MP-156] | > 50 µM | -1.482% | –
7 | CC(=O)N[C@@H](CCCCN)C(=O)N[C@@H](CCCCN)C(=O)N[C@H](C(=O)N[C@@H](CO)C(=O)N[C@@H](Cc1ccc2ccccc2c1)C(=O)N[C@]1(C)CCCCCCC=CCCC[C@@](C)(C(=O)N[C@@H](CCC(=O)O)C(N)=O)NC(=O)[C@H](CC2CCC2)NC(=O)[C@H](CC(C)C)NC(=O)[C@H](C)NC(=O)[C@H](Cc2c[nH]c3ccccc23)NC(=O)[C@H](Cc2ccc(O)cc2)NC(=O)[C@H](CCC(=O)O)NC1=O)[C@@H](C)O [MP-158] (Ac-KKTS[2Nal][R8]EYWAL[Cba][S5]E-NH2; staple 6-13) | > 50 µM | 9.197% | –
8 | CC(=O)N[C@@H](CCCCN=[N+]=[N-])C(=O)NCCC(=O)N[C@@H](CC(C)C)C(=O)N[C@H](C(=O)N[C@@H](Cc1ccccc1)C(=O)N[C@]1(C)CCCCC#CC#CCCC[C@@](C)(C(=O)N[C@@H](C)C(=O)N[C@@H](C)C(=O)NC(C)(CCC(=O)O)C(=O)N[C@@H](C)C(=O)N[C@@H](C)C(=O)N[C@H](C)C(N)=O)NC(=O)[C@H](CC2CCC2)NC(=O)[C@H](CCC(N)=O)NC(=O)[C@H](C)NC(=O)[C@H](Cc2c[nH]c3ccccc23)NC(=O)[C@H](Cc2ccc(O)cc2)NC(=O)[C@H](CCC(=O)O)NC1=O)[C@@H](C)O (stereo partly shown) [MP-467, Ac-K(N3)-(betaAla)-LTF(X)EYWAQ(Cba)(X)AA(a-methly-Glu)AA(DAla)-NH2] | – | – | EC50 [1, 2]: > 50.7 µM; EC50 [1, 3]: > 50.7 µM
9 | CC(=O)N[C@@H](CN)C(=O)N[C@@H](CN)C(=O)NCCCCCC(=O)N[C@H](C(=O)N[C@@H](CO)C(=O)N[C@@H](Cc1ccccc1)C(=O)N[C@]1(C)CCCCCCC=CCCC[C@@](C)(C(=O)N[C@@H](CCC(=O)O)C(=O)N[C@@H](CC(N)=O)C(=O)N[C@@H](Cc2ccccc2)C(N)=O)NC(=O)[C@H](CC(C)C)NC(=O)[C@H](CC(C)C)NC(=O)[C@H](C)NC(=O)[C@H](Cc2c[nH]c3ccccc23)NC(=O)[C@H](Cc2ccc(O)cc2)NC(=O)[C@H](CCC(=O)O)NC1=O)[C@@H](C)O [MP-663] (Ac-[Dap][Dap][Ahx]TSF[R8]EYWALL[S5]ENF-NH2; staple 7-14) | > 50 µM | – | –
10 | CC(=O)N[C@@H](CCCCN=[N+]=[N-])C(=O)NCCC(=O)N[C@@H](CC(C)C)C(=O)N[C@@H](CCC(=O)O)C(=O)N[C@@H](Cc1ccccc1)C(=O)N[C@@]1(C)CCCCCCC=CCCC[C@@](C)(C(=O)N[C@@H](CO)C(=O)N[C@@H](C)C(=O)N[C@@H](C)C(N)=O)NC(=O)[C@H](CC2CCC2)NC(=O)[C@H](CCC(N)=O)NC(=O)[C@H](C)NC(=O)[C@H](Cc2c[nH]c3ccccc23)NC(=O)[C@H](Cc2ccc(O)cc2)NC(=O)[C@H](CCC(=O)O)NC1=O [MP-630] | – | – | EC50 ([1]; LDH: Cytotoxicity assay: EC50): > 50.7 µM
11 | CC(=O)N[C@H](CC(C)C)C(=O)N[C@H](C(=O)N[C@@H](Cc1ccccc1)C(=O)N[C@]1(C)CCCCCCC=CCCC[C@@](C)(C(=O)N[C@@H](CO)C(=O)N[C@@H](C)C(=O)N[C@H](C)C(N)=O)NC(=O)[C@H](CC2CCC2)NC(=O)[C@H](CC(C)C)NC(=O)[C@H](CCC(N)=O)NC(=O)[C@H](Cc2c[nH]c3ccccc23)NC(=O)[C@H](Cc2ccc(O)cc2)NC(=O)[C@H](CCC(=O)O)NC1=O)[C@@H](C)O [MP-7202] | – | – | EC50 ([1]; LDH: Cytotoxicity assay: EC50): > 50.6 µM
12 | CC(C)C[C@H](NC(=O)CCNC(=O)[C@@H](N)CCCCN=[N+]=[N-])C(=O)N[C@H](C(=O)N[C@@H](Cc1ccccc1)C(=O)N[C@]1(C)CCCCCCC=CCCC[C@@](C)(C(=O)N[C@@H](CO)C(=O)N[C@@H](C)C(=O)N[C@@H](C)C(N)=O)NC(=O)[C@H](CC2CCC2)NC(=O)[C@H](CCC(N)=O)NC(=O)[C@H](C)NC(=O)[C@H](Cc2c[nH]c3ccccc23)NC(=O)[C@H](Cc2ccc(O)cc2)NC(=O)[C@H](CCC(=O)O)NC1=O)[C@@H](C)O [MP-618] | – | – | EC50 ([1]; LDH: Cytotoxicity assay: EC50): > 50.7 µM

Source: publication PMC10786919, “Design-rules for stapled peptides with in vivo activity and their application to Mdm2/X antagonists” (Nature Communications, 2024)
